# Experimental data from patent US20250206729A1, “DUAL RAF AND TUBULIN INHIBITORS AND METHODS OF USE THEREOF” (Deciphera Pharmaceuticals, LLC, priority 2023, published 2025).
# Like-named read-outs stand apart in the source and are kept apart here.
# Tests used:
# [1] = target: T1, B-Raf kinase (SEQ ID NO: 1) (Homo sapiens, UniProt P15056); experiment: Biochemical assay for B-Raf (coupled pyruvate kinase/lactate dehydrogenase); conditions: 1 mM ATP; read-out: BRAF (inhibition of biochemical activity, IC50)
# T1 construct: GST (N); purchased Sigma
# [2] = target: T2, C-Raf kinase (SEQ ID NO: 2) (Homo sapiens, UniProt P04049, Y340D/Y341D); experiment: Biochemical assay for C-Raf (coupled pyruvate kinase/lactate dehydrogenase); conditions: 1 mM ATP; read-out: CRAF (inhibition of biochemical activity, IC50)
# T2 construct: C-Raf residues 306-end; Y340D, Y341D with N-; GST (N); purchased Sigma
# MiaPaca-2 cells = experiment: MiaPaca-2 cell proliferation assay; format: cell-based; conditions: Homo sapiens, MIA PaCa-2
# Protocol: Miapaca-2 cells (catalog #CRL-1420) are obtained from the American Type Culture Collect (ATTC, Manassas, VA). Briefly, cells were grown in DMEM supplemented with 10% characterized fetal bovine serum (Invitrogen, Carlsbad, CA), 2.5% New Zealand sourced horse serum and 1% Penicillin/Streptomycin/L-Glutamine at 37° C., 5% CO2, and 95% humidity. Cells are expanded until reaching 70-95% confluency at which point they are sub-cultured or harvested for assay use. A serial dilution of test compound is dispensed into a 384-well black clear bottom plate in triplicate. Seven hundred fifty cells are added per well in 50 μL complete growth medium in the 384-well plate. Plates are incubated for 67-72 h at 37° C., 5% CO2, and 95% humidity. At the end of the incubation, 10 μL of a 440 μM solution of resazurin (Sigma, St. Louis, MO) in PBS is added to each well of the plate and plates are incubated for an additional 5-6 h at 37° C., 5% CO2, and 95% humidity. Plates are read on a Synergy2 or equivalent reader (Biotek, Winooski VT) using an excitation of 540 nm and an emission of 600 nm. Data is analyzed using Prism software (GraphPad, San Diego, CA) to calculate IC50 values.
# HCT-116 cells = experiment: HCT-116 cell proliferation assay; format: cell-based; conditions: Homo sapiens
# Protocol: HCT-116 cells (catalog #CCL-247) are obtained from the American Type Culture Collect (ATCC, Manassas, VA). Briefly, cells are grown in McCoy's 5A supplemented with 10% characterized fetal bovine serum (Invitrogen, Carlsbad, CA) and 1% Penicillin/Streptomycin/L-Glutamine at 37° C., 5% CO2, and 95% humidity. Cells are expanded until reaching 70-95% confluency at which point they are sub-cultured or harvested for assay use. A serial dilution of test compound is dispensed into a 384-well black clear bottom plate in triplicate. 375 cells are added per well in 50 μL complete growth medium in the 384-well plate. Plates are incubated for 67 to 72 h at 37° C., 5% CO2, and 95% humidity. At the end of the incubation, 40 μL of a […] solution of resazurin (Sigma, St. Louis, MO) in PBS is added to each well of the plate and plates are incubated for an additional 4 to 5 h at 37° C., 5% CO2, and 95% humidity. Plates are read on a Synergy2 or equivalent reader (Biotek, Winooski, VT) using an excitation of 540 nm and an emission of 600 nm. Data is analyzed using Prism software (Graphpad, San Diego, CA) to calculate IC50 values.
# HPAF-II cells = experiment: HPAF-II cell proliferation assay; format: cell-based; conditions: Homo sapiens
# Protocol: (§1) HPAF-II cells (catalog #CRL-1997) are obtained from the American Type Culture Collect (ATCC, Manassas, VA). Briefly, cells are grown in Minimum Essential Media supplemented with 10% characterized fetal bovine serum (Invitrogen, Carlsbad, CA) and 1% Penicillin/Streptomycin/L-Glutamine at 37° C., 5% CO2, and 95% humidity. Cells are expanded until reaching 70-95% confluency at which point they are sub-cultured or harvested for assay use. A serial dilution of test compound is dispensed into a 384-well black clear bottom plate in triplicate. 750 cells are added per well in 50 μL complete growth medium in the 384-well plate. Plates are incubated for 115 to 120 h at 37° C., 5% CO2, and 95% humidity. At the end of the incubation, 40 μL of a […] solution of resazurin (Sigma, St. Louis, MO) in PBS is added to each well of the plate and plates are incubated for an additional 18 to 24 h at 37° C., 5% CO2, and 95% humidity. Plates are read on a Synergy2 or equivalent reader (Biotek, Winooski, VT) using an excitation of 540 nm and an emission of 600 nm. Data is analyzed using Prism software (Graphpad, San Diego, CA) to calculate IC50 values.
# Pa16c cells = experiment: Pa16c cell proliferation assay; format: cell-based; conditions: 67 to 72 h incubation, resazurin; read-out: Pa16c (inhibition of cell proliferation, IC50)
# Protocol: as §1, with “Pa16c” for “HPAF-II”, “cells” for “cells (catalog #CRL-1997)”, “Dr. Channing Der, University of North Carolina at Chapel Hill.” for “the American Type Culture Collect (ATCC, Manassas, VA).”, “Dulbecco's Modified Eagle Medium” for “Minimum Essential Media”, “67” for “115”, “72” for “120”
# [3] = 67-72 h incubation, resazurin, read-out: MiaPaca-2 (inhibition of cell proliferation, IC50)
# [4] = HCT-116, 67 to 72 h incubation, resazurin, read-out: HCT-116 (inhibition of cell proliferation, IC50)
# [5] = HPAF-II, 115 to 120 h incubation, resazurin, read-out: HPAF-II (inhibition of cell proliferation, IC50)
# [6] = Table 4, mutant KRAS pancreatic cancer cell line, anti-proliferative, read-out: MiaPaca-2
# [7] = Table 4, mutant KRAS colorectal cancer cell line, anti-proliferative, read-out: HCT-116
# T2 sequence (P04049 307-648 Y340D/Y341D): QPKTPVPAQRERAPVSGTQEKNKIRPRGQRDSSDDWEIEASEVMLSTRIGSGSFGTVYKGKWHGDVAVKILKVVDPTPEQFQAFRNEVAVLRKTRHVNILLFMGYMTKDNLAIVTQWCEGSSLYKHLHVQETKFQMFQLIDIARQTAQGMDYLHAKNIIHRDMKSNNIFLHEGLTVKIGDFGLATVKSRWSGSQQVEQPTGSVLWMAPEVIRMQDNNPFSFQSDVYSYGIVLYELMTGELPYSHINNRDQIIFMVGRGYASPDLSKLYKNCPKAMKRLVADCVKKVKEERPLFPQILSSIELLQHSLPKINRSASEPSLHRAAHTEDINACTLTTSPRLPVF
# T1 sequence (P15056 416-766): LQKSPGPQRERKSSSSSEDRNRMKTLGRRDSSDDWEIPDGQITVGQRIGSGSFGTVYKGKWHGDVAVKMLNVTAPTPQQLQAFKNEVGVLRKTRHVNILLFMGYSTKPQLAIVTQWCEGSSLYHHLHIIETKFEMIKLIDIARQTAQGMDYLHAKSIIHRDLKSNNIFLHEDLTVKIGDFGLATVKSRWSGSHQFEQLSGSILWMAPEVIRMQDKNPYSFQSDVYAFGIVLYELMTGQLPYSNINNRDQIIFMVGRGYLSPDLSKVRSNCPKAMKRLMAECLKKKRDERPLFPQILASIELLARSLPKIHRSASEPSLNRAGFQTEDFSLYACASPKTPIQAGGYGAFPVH
IC50 [1] [nM],IC50 [2] [nM],IC50 (MiaPaca-2 cells; [3]) [nM],IC50 (HCT-116 cells; [4]) [nM],Compound,IC50 (HPAF-II cells; [5]) [nM],IC50 (Pa16c cells) [nM],IC50 (MiaPaca-2 cells; [6]) [nM],IC50 (HCT-116 cells; [7]) [nM],"IC50 (HPAF-II cells; Table 4, mutant KRAS pancreatic cancer cell line, anti-proliferative, read-out: HPAF-II) [nM]"
< 100,< 100,< 100,< 100,Cc1ccc(NC(=O)c2cc(C(C)(C)F)cnn2)cc1-c1cc(N[C@H](C)CO)nc(N2CCOCC2)c1 [Example 23],< 100,100 to 500,,,
1000 to 10000,1000 to 10000,1000 to 10000,1000 to 10000,Cc1ccc(NC(=O)c2cc(Cl)cnn2)cc1-c1cncc(N2CCOCC2)n1 [Example 65],1000 to 10000,1000 to 10000,,,
1000 to 10000,1000 to 10000,1000 to 10000,1000 to 10000,Cc1ccc(NC(=O)c2cc(C(F)(F)F)cnn2)cc1-c1nccc(N2CCOCC2)n1 [Example 10],1000 to 10000,1000 to 10000,,,
100 to 500,500 to 1000,1000 to 10000,500 to 1000,Cc1ccc(NC(=O)c2cc(C3CC3)cnn2)cc1-c1cc(N2CCOCC2)ncn1 [Example 40],500 to 1000,1000 to 10000,,,
1000 to 10000,500 to 1000,1000 to 10000,1000 to 10000,Cc1ccc(NC(=O)c2cnc(N)nc2)cc1-c1cc(N[C@H](C)CO)nc(N2CCOCC2)c1 [Example 68],1000 to 10000,1000 to 10000,,,
< 100,< 100,100 to 500,< 100,Cc1ccc(NC(=O)c2cc(C(C)C)cnn2)cc1-c1cc(OCCO)nc(N2CCOCC2)c1 [Example 39],100 to 500,100 to 500,,,
1000 to 10000,1000 to 10000,1000 to 10000,1000 to 10000,Cc1ccc(NC(=O)c2cc(Cl)cnn2)cc1-c1cncc(N2CCOCC2)c1 [Example 77],1000 to 10000,1000 to 10000,,,
< 100,< 100,500 to 1000,100 to 500,Cc1ccc(NC(=O)c2cncc(C(F)(F)F)c2)cc1-c1cc(OCCO)nc(N2CCOCC2)c1 [Example 47],500 to 1000,1000 to 10000,,,
< 100,< 100,500 to 1000,100 to 500,Cc1ccc(NC(=O)c2cncc(C(C)C)c2)cc1-c1cc(N[C@H](C)CO)nc(N2CCOCC2)c1 [Example 13],500 to 1000,1000 to 10000,,,
1000 to 10000,500 to 1000,100 to 500,100 to 500,Cc1ccc(NC(=O)c2cc(C3CC3)cnn2)cc1-c1ccnc(N2CCOCC2)n1 [Example 31],100 to 500,< 100,,,
< 100,< 100,100 to 500,100 to 500,Cc1ccc(NC(=O)c2cc(C3CC3)cnn2)cc1-c1cc(N2CCOCC2)nc(N[C@H](C)CO)n1 [Example 35],100 to 500,100 to 500,,,
100 to 500,100 to 500,1000 to 10000,1000 to 10000,Cc1ccc(NC(=O)c2cc(C(C)C)cnn2)cc1-c1cc(N2CCOCC2)ncn1 [Example 72],1000 to 10000,1000 to 10000,,,
100 to 500,< 100,100 to 500,100 to 500,Cc1ccc(NC(=O)c2cc(C(F)(F)F)cnn2)cc1-c1cccc(N2CCOCC2)c1 [Example 41],< 100,100 to 500,,,
500 to 1000,100 to 500,1000 to 10000,100 to 500,Cc1ccc(NC(=O)c2cc(Cl)cnn2)cc1-c1cc(OCCO)nc(N2CCOCC2)c1 [Example 32],1000 to 10000,500 to 1000,,,
,,,,"CCCS(=O)(=O)Nc1ccc(F)c(C(=O)c2c[nH]c3ncc(-c4ccc(Cl)cc4)cc23)c1F [Vemurafenib, vemurafenib, reference compound]",,,1000 to 10000,1000 to 10000,
100 to 500,< 100,1000 to 10000,1000 to 10000,Cc1ccc(NC(=O)c2cncc(C3CC3)n2)cc1-c1cc(N[C@H](C)CO)nc(N2CCOCC2)c1 [Example 62],1000 to 10000,1000 to 10000,,,
100 to 500,1000 to 10000,< 100,< 100,Cc1ccc(NC(=O)c2cc(C3CC3)cnn2)cc1-c1ccnc(N2C[C@@H]3C[C@H]2CO3)c1 [Example 89],< 100,< 100,,,
1000 to 10000,100 to 500,1000 to 10000,500 to 1000,Cc1ccc(NC(=O)c2cc(C(C)C)cnn2)cc1-c1ccnc(N2CCOCC2)n1 [Example 73],1000 to 10000,1000 to 10000,,,
< 100,< 100,1000 to 10000,1000 to 10000,C=C(C)c1cncc(C(=O)Nc2ccc(C)c(-c3cc(N[C@H](C)CO)nc(N4CCOCC4)c3)c2)n1 [Example 53],1000 to 10000,1000 to 10000,,,
100 to 500,< 100,< 100,< 100,Cc1ccc(NC(=O)c2cc(C3CC3)cnn2)cc1-c1ccnc(N2C[C@H]3C[C@@H]2CO3)c1 [Example 88],< 100,< 100,,,
,,,,"CC(C)(C)c1nc(-c2cccc(NS(=O)(=O)c3c(F)cccc3F)c2F)c(-c2ccnc(N)n2)s1 [Dabrafenib, dabrafenib, reference compound]",,,1000 to 10000,1000 to 10000,1000 to 10000
1000 to 10000,1000 to 10000,1000 to 10000,1000 to 10000,Cc1ccc(NC(=O)c2cc(C(F)(F)F)cnn2)cc1-c1ccnc(N2C[C@@H](C)O[C@@H](C)C2)c1 [Example 84],1000 to 10000,,,,
